Measured values from the supplement of paper PMC8882468.

Key:
Test in all cases: CTG-3D luminescence at 96 h relative to day-0 seeding control (ratio to day 0); higher = more growth / less cytotoxicity; PDxO 3D drug screen (set 2), 96 h, CTG-3D normalised to day-0 seeding control.
HCI-002 = tested on: HCI-002 (organoid from a triple-negative breast cancer xenograft)
HCI-011.E2 = tested on: HCI-011.E2 (organoid from an ER-positive breast cancer xenograft)
HCI-012 = tested on: HCI-012 (organoid from a breast cancer xenograft)
HCI-017.E2 = tested on: HCI-017.E2 (organoid from an ER-positive breast cancer xenograft)
HCI-019 = tested on: HCI-019 (organoid from a triple-negative breast cancer xenograft)
HCI-023 = tested on: HCI-023 (organoid from a triple-negative breast cancer xenograft)

CCOc1ccn(-c2ccc(F)cc2)c(=O)c1C(=O)Nc1ccc(Oc2ccnc(N)c2Cl)c(F)c1 [ASLAN002]
CTG-3D luminescence at 96 h
Settings | 12.5 pM | 0.00025 µM | 0.005 µM | 0.1 µM | 1 µM | 10 µM | 100 µM | 625 fM
HCI-002, days in culture: 127 | 2.57 | 3.09 | 2.93 | 3.28 | 2.8 | 2.96 | 1.67 | 2.9
HCI-002, days in culture: 155 | 4.58 | 5.63 | 6.16 | 6.6 | 5.32 | 3.84 | 1.94 | 4.85
HCI-002, days in culture: 168 | 3.23 | 3.24 | 4.54 | 3.38 | 4.12 | 2.92 | 0.58 | 3.92
HCI-011.E2, days in culture: 74 | 2.83 | 2.42 | 2.58 | 2.8 | 2.58 | 2.52 | 1.66 | 2.28
HCI-012, days in culture: 214 | 1.99 | 2.84 | 1.41 | 1.72 | 1.55 | 2.81 | 0.653 | 2.47
HCI-012, days in culture: 243 | 1.95 | 2.84 | 1.9 | 2.45 | 2.19 | 3.71 | 1.7 | 2.43
HCI-012, days in culture: 256 | 1.93 | 1.9 | 1.8 | 2.77 | 1.71 | 1.78 | 1.29 | 2.4
HCI-012, days in culture: 284 | 1.86 | 2.58 | 1.82 | 2.49 | 2.18 | 2.98 | 1.4 | 2.81
HCI-017.E2, days in culture: 85 | 2.5 | 1.78 | 1.94 | 2.7 | 2.23 | 1.93 | 1.32 | 2.13
HCI-019, days in culture: 173 | 2.03 | 1.61 | 1.52 | 3.51 | 1.6 | 1.16 | 1.12 | 1.28
HCI-019, days in culture: 194 | 1.11 | 1.59 | 0.978 | 1.46 | 0.851 | 0.875 | 1.1 | 1.75
HCI-019, days in culture: 215 | 1.3 | 0.756 | 1.22 | 1.28 | 2.09 | 0.724 | 0.591 | 1.91
HCI-023, days in culture: 223 | 1.5 | 2.83 | 1.7 | 2.8 | 1.5 | 1.49 | 1.03 | 1.61
HCI-023, days in culture: 238 | 1.66 | 1.62 | 1.17 | 1.42 | 1.76 | 1.05 | 0.917 | 1.58
HCI-023, days in culture: 252 | 1.99 | 1.93 | 1.78 | 2.01 | 2.08 | 1.47 | 1.15 | 2.04

CTG-3D luminescence at 96 h
Settings | 12.5 pM | 0.00025 µM | 0.005 µM | 0.1 µM | 1 µM | 10 µM | 100 µM | 625 fM
HCI-011.E2 | 1.61 | 1.78 | 1.28 | 1.76 | 1.41 | 2.11 | 1.39 | 2.23
HCI-017.E2 | 2.06 | 2.58 | 2.12 | 2.27 | 2.14 | 2.39 | 1.17 | 2.34

C[C@@H](Nc1cc(F)cc(F)c1)c1cc(C(=O)N(C)C)cc2c(=O)cc(N3CCOCC3)oc12 [AZD-8186]
CTG-3D luminescence at 96 h
Settings | 12.5 pM | 0.00025 µM | 0.005 µM | 0.1 µM | 1 µM | 10 µM | 100 µM | 625 fM
HCI-002, days in culture: 127 | 2.49 | 2.9 | 3.08 | 3.46 | 2.69 | 2.62 | 1.37 | 2.78
HCI-002, days in culture: 155 | 4.16 | 4.76 | 5.31 | 5.43 | 4.16 | 3.89 | 1.67 | 4.15
HCI-002, days in culture: 168 | 3.35 | 3.58 | 4.3 | 3.62 | 3.22 | 2.87 | 0.73 | 4.14
HCI-011.E2, days in culture: 74 | 2.16 | 1.88 | 1.79 | 2.21 | 1.49 | 1.12 | 0.136 | 2.4
HCI-012, days in culture: 214 | 3.16 | 3.58 | 2.36 | 2.15 | 1.61 | 1.53 | 0.299 | 3
HCI-012, days in culture: 243 | 1.81 | 2.44 | 1.8 | 2.35 | 1.56 | 1.4 | 0.468 | 2.52
HCI-012, days in culture: 256 | 2.2 | 2.24 | 2.12 | 3.26 | 1.35 | 0.936 | 0.409 | 2.45
HCI-012, days in culture: 284 | 1.94 | 2.57 | 2.11 | 2.5 | 1.45 | 2.64 | 0.535 | 2.65
HCI-017.E2, days in culture: 85 | 1.85 | 1.86 | 1.62 | 2.05 | 1.45 | 1.14 | 0.197 | 2.07
HCI-019, days in culture: 173 | 3.42 | 1.4 | 1.36 | 2.98 | 2.28 | 0.532 | 0.37 | 1.05
HCI-019, days in culture: 194 | 1.94 | 1.36 | 1.46 | 2.1 | 1.87 | 1.3 | 0.367 | 1.03
HCI-019, days in culture: 215 | 1.9 | 1.48 | 0.854 | 1.62 | 0.82 | 1.39 | 0.374 | 1.8
HCI-023, days in culture: 223 | 1.94 | 2.6 | 1.75 | 1.98 | 1.44 | 1.93 | 1.14 | 1.74
HCI-023, days in culture: 238 | 1.54 | 1.51 | 1.31 | 1.41 | 1.7 | 1.3 | 1.05 | 1.54
HCI-023, days in culture: 252 | 2.12 | 1.88 | 1.63 | 1.81 | 1.91 | 2.09 | 1.5 | 1.99

CTG-3D luminescence at 96 h
Settings | 12.5 pM | 0.00025 µM | 0.005 µM | 0.1 µM | 1 µM | 10 µM | 100 µM | 625 fM
HCI-011.E2 | 1.45 | 1.9 | 1.54 | 1.81 | 1.47 | 1.01 | 0.293 | 2.13
HCI-017.E2 | 2.08 | 2.64 | 2.27 | 2.48 | 1.89 | 1.096 | 0.252 | 2.74
